Experimental data from patent US20160106439A1, “PNEUMATIC TOURNIQUET” (BIONUMERIK PHARMACEUTICALS, INC., priority 2013, published 2016).
Where two headings read alike, the source gives them in different places.

Tests used:
Recombinant human Trx [1] = target: T1, Recombinant human Trx (Homo sapiens, UniProt P10599); assay: IEF PAGE of Trx incubated with Tavocept; type: binding; parameters: purchased Sigma (SigmaAldrich); host or cells: E. coli; conditions: Tavocept 10 mM, 37° C.
T1 sequence (P10599 1-105): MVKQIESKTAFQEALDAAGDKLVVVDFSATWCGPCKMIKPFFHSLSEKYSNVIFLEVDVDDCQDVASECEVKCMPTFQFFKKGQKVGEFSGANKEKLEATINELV

Recombinant human Trx [2] = target: T1, Recombinant human Trx; type: biochemical; parameters: 6xHis (N); purchased Sigma (Trx); American Diagnostica (bovine TrxR); conditions: Reaction B; disulfide 0.5 mM
Experimental: See, Luthman M and Holmgren A. Rat liver thioredoxin and thioredoxin reductase: purification and characterization. […] All disulfides were added to reactions as 10x solutions in buffer. The total volume of each reaction was 0.1 mL. Reactions were initiated by the addition of TrxR and were incubated at 25° C. for 40 minutes. Reactions were analyzed using a Molecular Devices SpectraMax Plus UV/vis plate reader and the activity was calculated using a 4 minute linear portion of each assay.

recombinant human ALK = recombinant human ALK (Homo sapiens, UniProt Q9UM73); assay: biochemical; conditions: for IC50: IC50 on ALK
Experimental: The substrate that was phosphorylated by the kinase, polyglutamate-tyrosine (PolyGT), was purchased from Sigma (P0275, lot 120M5007V).
All other reagents were purchased from Sigma Aldrich. A Tecan Ultra microplate reader with XFluor software (Tecan, V4.51) and RdrOle software (Tecan, V4.50) were used in this study.
ALK phosphorylated the polyGT substrate using the ATP cofactor and produced ADP. […] The reactions, in microtubes, were incubated for 60 minutes at 25° C. in a water bath. Following this 60 minute incubation, reactions were transferred to microplates and the kinase activity was evaluated using the ADP-glo system from Promega and monitored, in an endpoint assay, ADP produced when ALK phosphorylated the PolyGT substrate. Various controls were tested and included the assay components indicated in the columns of Table 9 below (where + indicates the component was included and an empty cell indicates it was not included).
Kinase assays were run in triplicate or quadruplicate in microplates. Following this, the ADP-glo detection system (Promega) was used to determine how much ADP had been produced. For 10 μL volume assays, to each microplate well containing 10 μL of kinase reaction was added ADP-glo reagent (10 μL), plates were spun in a table top centrifuge (1000 rpm (123×g) for 1 minute) to ensure no reagent remained on the well walls, and then agitated for 1 minute to ensure optimal mixing. Plates were incubated at 25° C. on a heat block for 40 minutes. Next, kinase detection reagent (20 μL) was added and, as above, centrifugation and agitation was repeated; plates were allowed to incubate at 25° C.±1° C. on a heat block for 40 minutes. Following the incubation of the kinase detection reagent, plates were read on a Tecan Ultra microplate reader. The Tecan Ultra contained a built-in plate definition file for the whole area 96-well white Corning plates but a plate definition file for the half area 96-well Corning plates was created using the RdrOle component of the Tecan Ultra software. For 25 μL volume assays, the procedure was as described above except that the ADP-glo reagent added to the 25 μL assay was 25 μL in volume and the kinase detection reagent was 50 μL in volume.
Therefore, each mole of polymer of 20,000 g/mole would contain approximately 28 moles of the glu-glu-glu-glu-tyr “subpolymer.” Typically, a 10 μL assay would contain […] of the polyGT substrate. […] This was a vast excess of possible tyrosine phosphorylation sites, ensuring that the substrate for phosphorylation was not rate limiting (assuming the higher mass range would produce an even larger excess of glu-glu-glu-glu-tyr “subpolymers”).
Data from ALK assays run on the Tecan Ultra microplate spectrophotometer were collected in Microsoft Excel. Error calculations and graphical representations were performed in Microsoft Office Excel (Microsoft Corporation, Redmond, Wash., USA). Determination of IC25, IC50 and IC75 values were accomplished using Origin Lab software (OriginLab Corporation, Northampton, Mass., USA).

ROS1 kinase = ROS1 kinase (Homo sapiens, UniProt P08922); assay: ROS1 kinase assays; type: biochemical; parameters: Recombinant human ROS1 kinase (residues 1883-2347), containing an N-terminal GST tag; purchased SignalChem; host or cells: Sf9 insect cells (baculovirus)
Sequence of ROS1 kinase (P08922 1883-2347): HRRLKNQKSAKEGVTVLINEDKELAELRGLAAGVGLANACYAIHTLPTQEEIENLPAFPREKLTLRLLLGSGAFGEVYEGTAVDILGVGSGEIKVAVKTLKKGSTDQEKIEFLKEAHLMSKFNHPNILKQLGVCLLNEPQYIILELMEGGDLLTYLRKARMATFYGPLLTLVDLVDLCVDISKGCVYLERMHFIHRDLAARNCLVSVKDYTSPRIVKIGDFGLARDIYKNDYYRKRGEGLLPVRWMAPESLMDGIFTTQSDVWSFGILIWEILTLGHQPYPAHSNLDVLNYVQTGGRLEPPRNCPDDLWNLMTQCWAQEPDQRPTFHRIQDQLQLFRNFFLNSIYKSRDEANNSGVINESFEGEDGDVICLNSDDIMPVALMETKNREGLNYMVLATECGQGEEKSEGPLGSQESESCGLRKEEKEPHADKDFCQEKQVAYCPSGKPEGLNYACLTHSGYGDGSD

Sequence of recombinant human ALK (Q9UM73 1058-1620 limits assumed): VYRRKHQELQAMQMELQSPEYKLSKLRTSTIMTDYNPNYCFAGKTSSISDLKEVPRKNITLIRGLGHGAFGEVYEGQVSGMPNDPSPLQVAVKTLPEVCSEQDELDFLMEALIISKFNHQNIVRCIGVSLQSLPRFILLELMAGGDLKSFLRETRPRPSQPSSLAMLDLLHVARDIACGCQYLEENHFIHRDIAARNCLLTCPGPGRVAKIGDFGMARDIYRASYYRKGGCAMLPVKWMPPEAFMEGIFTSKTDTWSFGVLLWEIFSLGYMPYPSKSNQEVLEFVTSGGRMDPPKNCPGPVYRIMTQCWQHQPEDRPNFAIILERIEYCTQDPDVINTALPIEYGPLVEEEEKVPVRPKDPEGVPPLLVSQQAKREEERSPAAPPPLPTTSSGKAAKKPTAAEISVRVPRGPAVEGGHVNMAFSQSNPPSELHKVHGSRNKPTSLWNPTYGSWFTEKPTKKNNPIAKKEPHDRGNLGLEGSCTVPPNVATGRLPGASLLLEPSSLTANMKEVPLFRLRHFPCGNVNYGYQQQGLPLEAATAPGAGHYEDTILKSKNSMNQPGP

With `O=S(=O)([O-])CCSSCCS(=O)(=O)[O-].[Na+].[Na+]` [Tavocept, disodium 2,2′-dithio-bis-ethane sulfonate] the “Trx migration on IEF gel” value (Recombinant human Trx [1]) was “shift in Trx migration”, the “Reduction of disulfide by Trx in the presence of TrxR and NADPH” value (Recombinant human Trx [2]) was “readily reduced” and the “greater inhibition of ALK than Crizotinib alone” value (shortened to “greater inhibition”) (recombinant human ALK; 100 μM ATP, 5 mM Tavocept + 15 nM Crizotinib) was 16%. For the same compound, the “greater inhibition” value (recombinant human ALK; 100 μM ATP, 5 mM Tavocept + 30 nM Crizotinib) was 10%, the “greater inhibition” value (recombinant human ALK; 100 μM ATP, 10 mM Tavocept + 15 nM Crizotinib) was 29% and the “greater inhibition” value (recombinant human ALK; 100 μM ATP, 10 mM Tavocept + 30 nM Crizotinib) was 19%. For the same compound, the “greater inhibition” value (recombinant human ALK; 500 μM ATP, 5 mM Tavocept + 30 nM Crizotinib) was 11%, the “greater inhibition” value (recombinant human ALK; 500 μM ATP, 5 mM Tavocept + 65 nM Crizotinib) was 6% and the “greater inhibition” value (recombinant human ALK; 500 μM ATP, 10 mM Tavocept + 30 nM Crizotinib) was 20%. For the same compound, the “greater inhibition” value (recombinant human ALK; 500 μM ATP, 10 mM Tavocept + 65 nM Crizotinib) was 6%, the “greater inhibition” value (recombinant human ALK; 500 μM ATP, 20 mM Tavocept + 30 nM Crizotinib) was 30% and the “greater inhibition” value (recombinant human ALK; 500 μM ATP, 20 mM Tavocept + 65 nM Crizotinib) was 13%. For the same compound, the IC50 (recombinant human ALK; 100 μM ATP) was 9.16 ± 2.91 mM, the IC50 (recombinant human ALK; 500 μM ATP) was 20.8 ± 3.49 mM and the inhibition at 5000 µM (recombinant human ALK; read-out: greater inhibition of ALK than Crizotinib alone, 100 μM ATP, 5 mM Tavocept + 15 nM Crizotinib) was 16%. The inhibition at 5000 µM (recombinant human ALK; read-out: greater inhibition of ALK than Crizotinib alone, 100 μM ATP, 5 mM Tavocept + 30 nM Crizotinib) was 10%, the inhibition at 10000 µM (recombinant human ALK; read-out: greater inhibition of ALK than Crizotinib alone, 100 μM ATP, 10 mM Tavocept + 15 nM Crizotinib) was 29% and the inhibition at 10000 µM (recombinant human ALK; read-out: greater inhibition of ALK than Crizotinib alone, 100 μM ATP, 10 mM Tavocept + 30 nM Crizotinib) was 19%. For the same compound, the inhibition at 5000 µM (recombinant human ALK; read-out: greater inhibition of ALK than Crizotinib alone, 500 μM ATP, 5 mM Tavocept + 30 nM Crizotinib) was 11%, the inhibition at 5000 µM (recombinant human ALK; read-out: greater inhibition of ALK than Crizotinib alone, 500 μM ATP, 5 mM Tavocept + 65 nM Crizotinib) was 6% and the inhibition at 10000 µM (recombinant human ALK; read-out: greater inhibition of ALK than Crizotinib alone, 500 μM ATP, 10 mM Tavocept + 30 nM Crizotinib) was 20%. The inhibition at 10000 µM (recombinant human ALK; read-out: greater inhibition of ALK than Crizotinib alone, 500 μM ATP, 10 mM Tavocept + 65 nM Crizotinib) was 6%, the inhibition at 20000 µM (recombinant human ALK; read-out: greater inhibition of ALK than Crizotinib alone, 500 μM ATP, 20 mM Tavocept + 30 nM Crizotinib) was 30% and the inhibition at 20000 µM (recombinant human ALK; read-out: greater inhibition of ALK than Crizotinib alone, 500 μM ATP, 20 mM Tavocept + 65 nM Crizotinib) was 13%. For the same compound, the “Inhibition of ROS1 kinase” value (ROS1 kinase) was “directly inhibit ROS1 kinase in a time-dependent manner”, the “Effect on Crizotinib inhibition of ROS1 kinase” value (ROS1 kinase; Tavocept incubated with ROS1 kinase prior to initiation of the kinase assays) was “potentiation of Crizotinib inhibition” and the “Modification of ROS1 kinase” value (ROS1 kinase; time dependent) was “BNP7787 xenobiotically modifies ROS1 kinase in”.
